Test: Dispersion of material on exposure to aqueous medium (visual)
Format: physicochemical
Settings: dye not incorporated into a porous body

In the case of CCNc1ccc2ccccc2c1N=Nc1ccc(N=Nc2ccccc2)cc1 [Fat red 7B dye], the “dispersion or solubility of the dye alone in water” value was “particles of dye remained at the bottom of the vessel”.
